Assay results from PMC3594701 (Journal of acquired immune deficiency syndromes (1999), 2011).
Entries after “also recorded” stand apart in the source; their conditions may differ. Values belong to the compound of their own block, whether it stands above or below them.

Columns and labels:
[1] = IC accumulation: ratio of IC drug to drug in plasma; conditions: human, oral, GM IC to Plasma Ratio
[2] = Steady-state intracellular; format: in vivo, human; conditions: IC (PBMC); for GM AUC (darunavir, ritonavir) / GM AUC: AUC0–24; for Cmax / concentration at 24 h: human, oral; for Cmax: GM Cmax; for concentration at 24 h: GM Ctrough
[3] = Steady-state plasma pharmacokinetics; format: in vivo, human; conditions: for Cmax / concentration at 24 h: human; for Cmax: GM Cmax; for concentration at 24 h: GM Ctrough
[4] = PBMC (intracellular)/plasma, Cmax, group 1, period 3 (day 49): darunavir/ritonavir 800/100 mg once daily, without raltegravir
[5] = PBMC (intracellular)/plasma, Cmax, group 2, period 3 (day 49): darunavir/ritonavir 800/100 mg once daily, without raltegravir
[6] = PBMC (intracellular)/plasma, Ctrough, group 1, period 3 (day 49): darunavir/ritonavir 800/100 mg once daily, without raltegravir
[7] = PBMC (intracellular)/plasma, Ctrough, group 2, period 3 (day 49): darunavir/ritonavir 800/100 mg once daily, without raltegravir
[8] = intracellular (PBMC) / plasma, AUC (darunavir, ritonavir), group 1, period 2 (day 35): darunavir/ritonavir 800/100 mg once daily + raltegravir 400 mg twice daily
[9] = intracellular (PBMC) / plasma, AUC (darunavir, ritonavir), group 2, period 2 (day 35): darunavir/ritonavir 800/100 mg once daily + raltegravir 800 mg once daily
[10] = intracellular (PBMC) / plasma, AUC, group 1, period 3 (day 49): darunavir/ritonavir 800/100 mg once daily, without raltegravir
[11] = intracellular (PBMC) / plasma, AUC, group 2, period 3 (day 49): darunavir/ritonavir 800/100 mg once daily, without raltegravir
[12] = intracellular (PBMC) / plasma, Cmax, group 1, period 2 (day 35): raltegravir 400 mg twice daily + darunavir/ritonavir 800/100 mg once daily
[13] = intracellular (PBMC) / plasma, Cmax, group 2, period 2 (day 35): raltegravir 800 mg once daily + darunavir/ritonavir 800/100 mg once daily
[14] = intracellular (PBMC) / plasma, Ctrough, group 1, period 2 (day 35): raltegravir 400 mg twice daily + darunavir/ritonavir 800/100 mg once daily
[15] = intracellular (PBMC) / plasma, Ctrough, group 2, period 2 (day 35): raltegravir 800 mg once daily + darunavir/ritonavir 800/100 mg once daily
[16] = group 1, period 2 (day 35): raltegravir 400 mg twice daily + darunavir/ritonavir 800/100 mg once daily
[17] = group 1, period 3 (day 49): darunavir/ritonavir 800/100 mg once daily, without raltegravir
[18] = group 2, period 3 (day 49): darunavir/ritonavir 800/100 mg once daily, without raltegravir
[19] = PBMC, group 2, period 2 (day 35): raltegravir 800 mg once daily + darunavir/ritonavir 800/100 mg once daily
[20] = oral, group 1, period 3 (day 49): darunavir/ritonavir 800/100 mg once daily, without raltegravir
[21] = oral, group 2, period 3 (day 49): darunavir/ritonavir 800/100 mg once daily, without raltegravir

- Kp [1, 4]: 13.5
- Kp [1, 5]: 5.2
- Kp [1, 6]: 11.7
- Kp [1, 7]: 10.6
- Kp [1, 8]: 10
- Kp [1, 9]: 6.9
- Kp [1, 10]: 9.5
- Kp [1, 11]: 6.5
- Kp [1, 12]: 13.8
- Kp [1, 13]: 5.7
- Kp [1, 14]: 12
- Kp at 24 h [1, 15]: 10.1
- GM AUC (darunavir, ritonavir) ([2]; group 1, period 2 (day 35): darunavir/ritonavir 800/100 mg once daily + raltegravir 400 mg twice daily): 33,789 ng·h^−1·mL^−1
- GM Ctrough [2, 16]: 458 ng/mL
- GM AUC [2, 17]: 36,769 ng·h^−1·mL^−1
- GM AUC (darunavir, ritonavir) ([2]; group 2, period 2 (day 35): darunavir/ritonavir 800/100 mg once daily + raltegravir 800 mg once daily): 28,683 ng·h^−1·mL^−1
- GM AUC [2, 18]: 27,652 ng·h^−1·mL^−1
- Cmax ([2]; PBMC (intracellular), group 1, period 3 (day 49): darunavir/ritonavir 800/100 mg once daily, without raltegravir): 4040 ng/mL
- Cmax ([2]; PBMC (intracellular), group 2, period 3 (day 49): darunavir/ritonavir 800/100 mg once daily, without raltegravir): 2610 ng/mL
- Cmax ([2]; PBMC, group 1, period 2 (day 35): raltegravir 400 mg twice daily + darunavir/ritonavir 800/100 mg once daily): 3880 ng/mL
- Cmax [2, 19]: 3290 ng/mL
- concentration at 24 h ([2]; PBMC, group 1, period 3 (day 49): darunavir/ritonavir 800/100 mg once daily, without raltegravir): 478 ng/mL
- concentration at 24 h [2, 19]: 329 ng/mL
- concentration at 24 h ([2]; PBMC, group 2, period 3 (day 49): darunavir/ritonavir 800/100 mg once daily, without raltegravir): 369 ng/mL
- GM AUC (darunavir, ritonavir) ([3]; group 1, period 2 (day 35): darunavir/ritonavir 800/100 mg once daily + raltegravir 400 mg twice daily, AUC0–24): 4299 ng/h/mL
- GM AUC (darunavir, ritonavir) ([3]; group 1, period 2 (day 35): darunavir/ritonavir 800/100 mg once daily + raltegravir 400 mg twice daily, AUC0–24, listed as ritonavir): 4299 (3823–5176) ng·h^−1·mL^−1
- GM Ctrough [3, 16]: 48 ng/mL
- GM Ctrough [3, 17]: 44 ng/mL
- GM AUC ([3]; group 1, period 3 (day 49): darunavir/ritonavir 800/100 mg once daily, without raltegravir, AUC0–24): 4568 ng/h/mL
- GM AUC ([3]; group 1, period 3 (day 49): darunavir/ritonavir 800/100 mg once daily, without raltegravir, AUC0–24, listed as ritonavir): 4568 (4070–5427) ng·h^−1·mL^−1
- GM AUC (darunavir, ritonavir) ([3]; group 2, period 2 (day 35): darunavir/ritonavir 800/100 mg once daily + raltegravir 800 mg once daily, AUC0–24): 4359 ng/h/mL
- GM AUC (darunavir, ritonavir) ([3]; group 2, period 2 (day 35): darunavir/ritonavir 800/100 mg once daily + raltegravir 800 mg once daily, AUC0–24, listed as ritonavir): 4359 (3816–5443) ng·h^−1·mL^−1
- GM Ctrough ([3]; group 2, period 2 (day 35): raltegravir 800 mg once daily + darunavir/ritonavir 800/100 mg once daily): 34 ng/mL
- GM Ctrough [3, 18]: 36 ng/mL
- GM AUC ([3]; group 2, period 3 (day 49): darunavir/ritonavir 800/100 mg once daily, without raltegravir, AUC0–24): 4516 ng/h/mL
- GM AUC ([3]; group 2, period 3 (day 49): darunavir/ritonavir 800/100 mg once daily, without raltegravir, AUC0–24, listed as ritonavir): 4516 (3798–5986) ng·h^−1·mL^−1
- Cmax [3, 16]: 483 ng/mL
- Cmax [3, 20]: 528 ng/mL
- Cmax [3, 21]: 527 ng/mL
- concentration at 24 h [3, 20]: 44 ng/mL
- concentration at 24 h ([3]; oral, group 2, period 2 (day 35): raltegravir 800 mg once daily + darunavir/ritonavir 800/100 mg once daily): 34 ng/mL
- concentration at 24 h [3, 21]: 36 ng/mL
- PK exposure parameters with versus without raltegravir ([3]; periods 2 and 3): comparable; also recorded: not affected
Compound: CC(C)c1nc(CN(C)C(=O)N[C@H](C(=O)N[C@@H](Cc2ccccc2)C[C@H](O)[C@H](Cc2ccccc2)NC(=O)OCc2cncs2)C(C)C)cs1 [Ritonavir, ritonavir]

- Kp [1, 4]: 6.8
- Kp [1, 5]: 4.8
- Kp [1, 6]: 4.8
- Kp [1, 7]: 4.4
- Kp [1, 8]: 5.3
- Kp [1, 9]: 5.6
- Kp [1, 10]: 5.3
- Kp [1, 11]: 4.9
- Kp [1, 12]: 6.8
- Kp [1, 13]: 6.3
- Kp [1, 14]: 4.4
- Kp at 24 h [1, 15]: 4.3
Compound: CC(C)CN(C[C@@H](O)[C@H](Cc1ccccc1)NC(=O)O[C@H]1CO[C@H]2OCC[C@H]21)S(=O)(=O)c1ccc(N)cc1 [Darunavir, darunavir]
